Measurements reported in patent publication US12053506B2, “Romo1-derived antimicrobial peptides and variants thereof” (priority 2019, dated 2024).
No end group written: not given here.

test system: methicillin-resistant Staphylococcus aureus (ATCC 33591); test: not given; settings: Tables 11-15, no unit printed
Method: First, each of Pseudomonas aeruginosa (ATCC 27853) and Staphylococcus aureus (ATCC 29213) was cultured in 3% (w/v) TSB (Tryptic Soy Broth) liquid medium at 37° C. and 200 rpm for 4 hours, and then further cultured under the same conditions for 3 hours to a concentration of 5×10^6 CFU/ml. Strain solutions were prepared by diluting each of the further cultured strains with SP (sodium phosphate; 10 mM sodium phosphate, 1% TSB) buffer to a final concentration of 2×10^5 CFU/ml.
(§1) Then, each peptide at varying concentrations (0 μg/ml to 300 μg/ml) was dispensed into each well of a 96-well microplate, and 100 μl (1×10^5 CFU/ml) of each of the prepared strain solutions was added thereto, mixed therewith, and allowed to react with the peptide in an incubator at 37° C. for 1 hour.
In addition, 30 g/L of TS (tryptic soy) and 15 g/L of agar were dissolved in distilled water and sterilized, and then 25 ml of the solution was poured onto a 100 mm round plate and solidified at room temperature for one day or more, thereby preparing a TS agar plate. 10 μl of each reaction solution of the peptide and the strain was plated on the TS agar plate at a constant size, and incubated in an incubator at 37° C. for 18 hours, and then colony formation on the plate was checked.
Specifically, each type of bacteria was cultured in 3% (w/v) TSB (Tryptic Soy Broth) liquid medium at 37° C. and 200 rpm for 4 hours, and then further cultured under the same conditions for 3 hours to a concentration of 5×10^6 CFU/ml. Strain solutions were prepared by diluting each of the […] of 2×10^5 CFU/ml.
as §1, with “Then, the KU-5878” for “Then, each”
In addition, 10 μl of each reaction solution of the peptide and the strain was plated on the TS agar plate at a constant size, and incubated in an incubator at 37° C. for 18 hours, and then colony formation on the plate was checked.

First: KTMMQAGGTFGTFMAIGMGIR [KU-5878-S63A]
Second: KTMMQHGGTFGTFMAIGMGIR [KU-5878-S63H]
The MBC MRSA of the first is higher: over 300 µg/mL for the first, 110 µg/mL for the second.

Going from KTMMQRGGTFGTFMAIGMGIR [KU-5878-S63R] to “KTMMQS-GTFGTF-AIGM-IR [5878-d64G, d71M, d76G]”, the MBC MRSA rises from 25 µg/mL to 200 µg/mL (8-fold).

“KTMMQS-GTFGTFMAIGMGIR [Peptide 5878-d64G]” and “KTMMQSGG-FGTFMAIGMGIR [Peptide 5878-d66T]” are within 1.5-fold of each other in MBC MRSA: 100 µg/mL for the first, 90 µg/mL for the second.

KTMMQSGGAFGTFMAIGMGIR [KU-5878-T66A] and KTMMQSGGHFGTFMAIGMGIR [KU-5878-T66H] cannot be ordered by MBC MRSA: over 300 µg/mL for the first, over 300 µg/mL for the second.

Going from KTMMQSGGRFGTFMAIGMGIR [KU-5878-T66R] to KTMMQSGGSFGTFMAIGMGIR [KU-5878-T66S], the MBC MRSA rises from 90 µg/mL to over 300 µg/mL.

Compared with “KTMMQSGGT-GTFMAIGMGIR [Peptide 5878-d67F]”, KTMMQSGGTAGTFMAIGMGIR [KU-5878-F67A] is higher in MBC MRSA: 200 µg/mL for the first, over 300 µg/mL for the second.

Going from “KTMMQSGGTF-TFMAIGMGIR [Peptide 5878-d68G]” to “KTMMQSGGTFG-FMAIGMGIR [Peptide 5878-d69T]”, the MBC MRSA rises from 25 µg/mL to 140 µg/mL (5.6-fold).

Going from KTMMQSGGTFGAFMAIGMGIR [KU-5878-T69A] to “KTMMQSGGTFGT-MAIGMGIR [Peptide 5878-d70F]”, the MBC MRSA falls from 300 µg/mL to 200 µg/mL (1.5-fold).

test system: CRPA; test: MBC, evaluation of antibacterial activities of KU-5878 variants; format: cell-based; settings: Tables 11-15, no unit printed
Method: Variants were prepared by deleting one amino acid from the amino acid sequence of KU-5878 (SEQ ID NO: 13), and the antibacterial activities thereof were evaluated.
Variants were prepared by deleting two or more amino acids from the amino acid sequence of KU-5878 (SEQ ID NO: 13), and the antibacterial activities thereof were evaluated.
One amino acid in the amino acid sequence of KU-5878 (SEQ ID NO: 13) was substituted, and the antibacterial activities of the peptides were evaluated.
Substitutions of Q62K, S63K and T66K were sequentially added to the amino acid sequence of KU-5878-T59K, and the antibacterial activities of the peptides were evaluated.
An amino acid repeat sequence was added to the C-terminus of KU-5878, and the antibacterial activities of the peptides were evaluated. According to Table 15 below, when the R (arginine) repeat sequence or K (lysine) sequence was added to the C-terminus of KU-5878, the antibacterial activity of the peptide increased.

First: KTMMQAGGTFGTFMAIGMGIR [KU-5878-S63A]
Second: KTMMQHGGTFGTFMAIGMGIR [KU-5878-S63H]
The MBC CRPA of the first is 3-fold higher: 300 µg/mL for the first, 100 µg/mL for the second.

Going from KTMMQRGGTFGTFMAIGMGIR [KU-5878-S63R] to “KTMMQS-GTFGTF-AIGM-IR [5878-d64G, d71M, d76G]”, the MBC CRPA rises from 20 µg/mL to 200 µg/mL (10-fold).

“KTMMQS-GTFGTFMAIGMGIR [Peptide 5878-d64G]” and “KTMMQSGG-FGTFMAIGMGIR [Peptide 5878-d66T]” are within 1.5-fold of each other in MBC CRPA: 110 µg/mL for the first, 100 µg/mL for the second.

KTMMQSGGAFGTFMAIGMGIR [KU-5878-T66A] and KTMMQSGGHFGTFMAIGMGIR [KU-5878-T66H] cannot be ordered by MBC CRPA: over 300 µg/mL for the first, over 300 µg/mL for the second.

Going from KTMMQSGGRFGTFMAIGMGIR [KU-5878-T66R] to KTMMQSGGSFGTFMAIGMGIR [KU-5878-T66S], the MBC CRPA rises from 80 µg/mL to over 300 µg/mL.

Compared with “KTMMQSGGT-GTFMAIGMGIR [Peptide 5878-d67F]”, KTMMQSGGTAGTFMAIGMGIR [KU-5878-F67A] is higher in MBC CRPA: 200 µg/mL for the first, over 300 µg/mL for the second.

First: KTMMQSGGTF-TFMAIGMGIR [Peptide 5878-d68G]
Second: KTMMQSGGTFG-FMAIGMGIR [Peptide 5878-d69T]
The MBC CRPA of the first is 7.8-fold lower: 18 µg/mL for the first, 140 µg/mL for the second.

Compared with KTMMQSGGTFGAFMAIGMGIR [KU-5878-T69A], “KTMMQSGGTFGT-MAIGMGIR [Peptide 5878-d70F]” is 1.5-fold lower in MBC CRPA: 300 µg/mL for the first, 200 µg/mL for the second.

test system: Staphylococcus aureus (ATCC 29213); test: not given; format: cell-based; settings: ATCC 29213, 1 h
Excerpt: (§2) Romo1 protein comprises two α-helices. The present inventors synthesized the α-helix 2 region having both hydrophilicity and hydrophobicity, and evaluated the antibacterial activity thereof using minimum bactericidal concentration (MBC) assay. The α-helix 2 region was named KU-5279 (the 52-79 amino acid region of Romo1 protein). Then, in order to identify peptides that are beneficial for human application and have excellent antibacterial activity, the present inventors synthesized several peptides comprising a sequence of contiguous amino acids starting at any amino acid selected from the 52-79 amino acid region of Romo1 protein, and comparatively evaluated the antibacterial activities of the peptides by minimum bactericidal concentration assay (See Table 1 below for information on each peptide). Evaluation of the antibacterial activity of each peptide by minimum bactericidal concentration assay was specifically performed as follows. First, each of Pseudomonas aeruginosa (ATCC 27853) and Staphylococcus aureus (ATCC 29213) was cultured in 3% (w/v) TSB (Tryptic Soy Broth) liquid medium at 37° C. and 200 rpm for 4 hours, and then further cultured under the same conditions for 3 hours to a concentration of 5×10^6 CFU/ml. Strain solutions were prepared by diluting each of the further cultured strains with SP (sodium phosphate; 10 mM sodium phosphate, 1% TSB) buffer to a final concentration of 2×10^5 CFU/ml. Then, each peptide at varying concentrations (0 μg/ml to 300 μg/ml) was dispensed into each well of a 96-well microplate, and 100 μl (1×10^5 CFU/ml) of each of the prepared strain solutions was added thereto, mixed therewith, and allowed to react with the peptide in an incubator at 37° C. for 1 hour. In addition, 30 g/L of TS (tryptic soy) and 15 g/L of agar were dissolved in distilled water and sterilized, and then 25 ml of the solution was poured onto a 100 mm round plate and solidified at room temperature for one day or more, thereby preparing a TS agar plate. 10 μl of each reaction solution of the peptide and the strain was plated on the TS agar plate at a constant size, and incubated in an incubator at 37° C. for 18 hours, and then colony formation on the plate was checked. The minimum bactericidal concentration was defined as the minimum concentration of the peptide at which no colony was formed, and the experimental results are shown in Table 1 below.

KTMMQSGGTAGTFMAIGMGIR [KU-5878-F67A] was tested, and the “MBC value (μg/ml) against Staphylococcus aureus” value was over 300 µg/mL.

same assay, conditions: Tables 11-15, no unit printed

Going from KTMMQAGGTFGTFMAIGMGIR [KU-5878-S63A] to KTMMQHGGTFGTFMAIGMGIR [KU-5878-S63H], the MBC Staphylococcus aureus falls from 300 µg/mL to 100 µg/mL (3-fold).

First: KTMMQRGGTFGTFMAIGMGIR [KU-5878-S63R]
Second: KTMMQS-GTFGTF-AIGM-IR [5878-d64G, d71M, d76G]
The MBC Staphylococcus aureus of the first is 13-fold lower: 15 µg/mL for the first, 200 µg/mL for the second.

“KTMMQS-GTFGTFMAIGMGIR [Peptide 5878-d64G]” and “KTMMQSGG-FGTFMAIGMGIR [Peptide 5878-d66T]” are within 1.5-fold of each other in MBC Staphylococcus aureus: 100 µg/mL for the first, 90 µg/mL for the second.

KTMMQSGGAFGTFMAIGMGIR [KU-5878-T66A] and KTMMQSGGHFGTFMAIGMGIR [KU-5878-T66H] cannot be ordered by MBC Staphylococcus aureus: over 300 µg/mL for the first, over 300 µg/mL for the second.

Compared with KTMMQSGGRFGTFMAIGMGIR [KU-5878-T66R], KTMMQSGGSFGTFMAIGMGIR [KU-5878-T66S] is higher in MBC Staphylococcus aureus: 90 µg/mL for the first, over 300 µg/mL for the second.

Going from “KTMMQSGGT-GTFMAIGMGIR [Peptide 5878-d67F]” to KTMMQSGGTAGTFMAIGMGIR [KU-5878-F67A], the MBC Staphylococcus aureus rises from 200 µg/mL to over 300 µg/mL.

First: KTMMQSGGTF-TFMAIGMGIR [Peptide 5878-d68G]
Second: KTMMQSGGTFG-FMAIGMGIR [Peptide 5878-d69T]
The MBC Staphylococcus aureus of the first is 6-fold lower: 20 µg/mL for the first, 120 µg/mL for the second.

Compared with KTMMQSGGTFGAFMAIGMGIR [KU-5878-T69A], “KTMMQSGGTFGT-MAIGMGIR [Peptide 5878-d70F]” is 1.5-fold lower in MBC Staphylococcus aureus: 300 µg/mL for the first, 200 µg/mL for the second.

test system: Pseudomonas aeruginosa (ATCC 27853); test: not given; format: cell-based; settings: ATCC 27853, 1 h
Excerpt: as §2

For KTMMQSGGTAGTFMAIGMGIR [KU-5878-F67A], the “MBC value (μg/ml) against Pseudomonas aeruginosa” value was over 300 µg/mL.

same assay, conditions: Tables 11-15, no unit printed

Going from KTMMQAGGTFGTFMAIGMGIR [KU-5878-S63A] to KTMMQHGGTFGTFMAIGMGIR [KU-5878-S63H], the MBC Pseudomonas aeruginosa falls from 300 µg/mL to 100 µg/mL (3-fold).

Compared with KTMMQRGGTFGTFMAIGMGIR [KU-5878-S63R], “KTMMQS-GTFGTF-AIGM-IR [5878-d64G, d71M, d76G]” is 10-fold higher in MBC Pseudomonas aeruginosa: 20 µg/mL for the first, 200 µg/mL for the second.

“KTMMQS-GTFGTFMAIGMGIR [Peptide 5878-d64G]” and “KTMMQSGG-FGTFMAIGMGIR [Peptide 5878-d66T]” are within 1.5-fold of each other in MBC Pseudomonas aeruginosa: 100 µg/mL for the first, 90 µg/mL for the second.

KTMMQSGGAFGTFMAIGMGIR [KU-5878-T66A] and KTMMQSGGHFGTFMAIGMGIR [KU-5878-T66H] cannot be ordered by MBC Pseudomonas aeruginosa: over 300 µg/mL for the first, over 300 µg/mL for the second.

Going from KTMMQSGGRFGTFMAIGMGIR [KU-5878-T66R] to KTMMQSGGSFGTFMAIGMGIR [KU-5878-T66S], the MBC Pseudomonas aeruginosa rises from 80 µg/mL to over 300 µg/mL.

Going from “KTMMQSGGT-GTFMAIGMGIR [Peptide 5878-d67F]” to KTMMQSGGTAGTFMAIGMGIR [KU-5878-F67A], the MBC Pseudomonas aeruginosa rises from 200 µg/mL to over 300 µg/mL.

Going from “KTMMQSGGTF-TFMAIGMGIR [Peptide 5878-d68G]” to “KTMMQSGGTFG-FMAIGMGIR [Peptide 5878-d69T]”, the MBC Pseudomonas aeruginosa rises from 25 µg/mL to 120 µg/mL (4.8-fold).

Going from KTMMQSGGTFGAFMAIGMGIR [KU-5878-T69A] to “KTMMQSGGTFGT-MAIGMGIR [Peptide 5878-d70F]”, the MBC Pseudomonas aeruginosa falls from 300 µg/mL to 200 µg/mL (1.5-fold).
